Measured values taken from US20120107916A1, “METHODS AND COMPOSITIONS FOR AFFECTING THE DIFFERENTIATION OF CLOSTRIDIA IN CULTURE” (priority 2009, published 2012).

Experiments:
[1] = system: Clostridium acetobutylicum ATCC 824; experiment: Growth (optical density at 600 nm) of sequential batch cultures; type: cell-based
Experimental: (§1) Bacterial strains and media. Clostridium acetobutylicum ATCC 824 and C. beijerinckii NCIMB 8052 are available from several commercial microbial culture collections including the American Type Culture Collection (ATCC), Manassas, Va., USA. The strains were grown at 30° C. or 37° C. in YE broth, which contained, per liter: 5.0 g yeast extract, 2.5 g casamino acids, 1.0 g L-asparagine, 0.5 g cysteine.HCl, 56 mg K2HPO4, 56 mg KH2PO4, 82 mg anhydrous MgSO4, 8 mg FeSO4.H2O, 6 mg MnSO4.H2O and 10 g glucose. Alternatively, strains were grown in YEPG broth, which was identical to YE expect that K2HPO4 and KH2PO4 were increased to 145 mg/L each and glucose was increased to 60 g/L. The pH of the media was adjusted to 7.2 using 45% KOH prior to sterilization by autoclaving. Media were solidified by addition of 1.5% Bacteriological Agar, Actimedia Manufacturers, Inc., Lansing, Mich. All cultures were grown in anaerobic conditions using the AnaeroPack System, Mitsubishi Gas Chemical Co., Inc., Japan, and GasPak EZ Gas Generating Sachets, Becton, Dickinson and Co., Sparks, Md. Spore stocks were kept at room temperature on agar-solidified media and were activated by suspending spores in 0.5 mL to 1.0 mL of medium followed by heating for 10 min at 80° C. before inoculation into growth medium.
(§2) Growth and pH measurements. Growth of bacterial cultures was measured spectrophotometrically using optical density at 600 nm and pH of cell-free culture supernatants was measured using a hand-held Shindengen ISFET pH Meter KS501, Shendengen Electric Manufacturing Co., Ltd., Bannockburn, Ill.
(§3) Effect of peptide SEQ ID NO:143 addition on sequential batch cultures of C. acetobutylicum ATCC 824 grown at 30° C. Spores of C. acetobutylicum ATCC 824 were germinated and grown overnight at 30° C. under anaerobic conditions in YEPG medium. After about 24 h of growth, 75 μL of the culture was transferred (transfer 1) to each of four flasks that contained 10 mL of YEPG and either had no treatment or were treated with peptide SEQ ID NO:143 (see Table 8 and FIG. 1) at 1 nM, 10 nM or 50 nM. Thereafter, 75 μL of each culture was transferred, at the same time, every 24-48 h to 10 mL of fresh YEPG that contained the same peptide treatment or no treatment. Each culture was stopped after 96 hours of incubation and optical density, pH and ceric ion reactive chemicals were measured. Sequential batch culturing was continued through 5 transfers at which point the untreated culture and those treated with 1 nM and 10 nM of peptide SEQ ID NO:143 had stopped growing (Table 9).
(§4) Effect of peptide SEQ ID NO:143 addition on sequential batch cultures of C. acetobutylicum ATCC 824 grown at 37° C. Spores of C. acetobutylicum ATCC 824 were germinated and grown overnight at 37° C. under anaerobic conditions in YEPG medium that either contained 50 nM of peptide SEQ ID NO:143 or no added peptide. After about 24 h of growth, 10 μL of the untreated culture was transferred (transfer 1) to each of two flasks that contained 10 mL of YEPG with either no treatment or with 50 nM peptide SEQ ID NO:143. At the same time, 10 μL of the culture that was germinated in the presence of peptide SEQ ID NO:143 was also transferred to 10 mL of YEPG that contained 50 nM of peptide SEQ ID NO:143. Thereafter, 10 μL of each culture was transferred, at the same time, every 24-48 h to 10 mL of fresh YEPG that contained the same peptide treatment or no treatment. Each culture was stopped after 72 hours if incubation and optical density, pH and ceric ion reactive chemicals were measured. Sequential batch culturing was continued through 3 transfers at which point the untreated culture and the culture that was germinated and transferred in 50 nM of peptide were still growing, while the culture that was treated with peptide after germination had stopped growing (Table 15 and FIG. 7).

[2] = system: Clostridium acetobutylicum ATCC 824; experiment: Final pH of cell-free culture supernatants of sequential batch cultures; type: cell-based
Experimental: as §1, §2, §3, §4

C. acetobutylicum = experiment: Estimate of extended serial propagation in continuous culture from sequential batch transfers; design: species or system Clostridium acetobutylicum; settings: dilution rate 0.05/hour, from about 140 hours without peptide
Experimental: Under these experimental conditions, and knowledge of the growth of C. acetobutylicum in culture, it was determined that each sequential transfer was equivalent to about seven bacterial generations ([…], Applied and Environmental Microbiology 59:4198-4202, 1993). […] An estimate of extended serial propagation in continuous culture may be expressed as extended time in continuous culture by taking the dilution rate into account. In continuous culture, the time for one generation is equal to the inverse of the dilution rate.

[3] = 1 nM peptide, transfer 1, 96 h, 30° C.
[4] = 1 nM peptide, transfer 2, 96 h, 30° C.
[5] = 1 nM peptide, transfer 3, 96 h, 30° C.
[6] = 1 nM peptide, transfer 4, 96 h, 30° C.
[7] = 1 nM peptide, transfer 5, 96 h, 30° C.
[8] = 10 nM peptide, transfer 1, 96 h, 30° C.
[9] = 10 nM peptide, transfer 2, 96 h, 30° C.
[10] = 10 nM peptide, transfer 3, 96 h, 30° C.
[11] = 10 nM peptide, transfer 4, 96 h, 30° C.
[12] = 50 nM peptide added after germination, transfer 1, 72 h, 37° C.
[13] = 50 nM peptide added after germination, transfer 2, 72 h, 37° C.
[14] = 50 nM peptide added after germination, transfer 3, 72 h, 37° C.
[15] = 50 nM peptide, transfer 1, 96 h, 30° C.
[16] = 50 nM peptide, transfer 2, 96 h, 30° C.
[17] = 50 nM peptide, transfer 3, 96 h, 30° C.
[18] = 50 nM peptide, transfer 4, 96 h, 30° C.
[19] = 50-50: germinated and transferred in 50 nM peptide, transfer 1, 72 h, 37° C.
[20] = 50-50: germinated and transferred in 50 nM peptide, transfer 2, 72 h, 37° C.
[21] = 50-50: germinated and transferred in 50 nM peptide, transfer 3, 72 h, 37° C.
[22] = 50-50: spores germinated in 50 nM peptide, transfer 0 (germinated culture), 72 h, 37° C.

## SYPGWSW [Peptide SEQ ID NO:143]
[1]; 1 nM peptide, 30° C., untreated culture did not grow after the second transfer
  Last sequential transfer through which growth was allowed: third transfer
[1]; [3]
  Optical density at 600 nm of culture broths: 0.005
[1]; [4]
  Optical density at 600 nm of culture broths: 2.274
[1]; [5]
  Optical density at 600 nm of culture broths: 2.165
[1]; [6]
  Optical density at 600 nm of culture broths: 0.044
[1]; [7]
  Optical density at 600 nm of culture broths: 0.004
[1]; 10 nM peptide, 30° C.
  Last sequential transfer through which growth was allowed: fourth transfer
[1]; [8]
  Optical density at 600 nm of culture broths: 2.001
[1]; [9]
  Optical density at 600 nm of culture broths: 2.245
[1]; [10]
  Optical density at 600 nm of culture broths: 2.379
[1]; [11]
  Optical density at 600 nm of culture broths: 2.266
[1]; 10 nM peptide, transfer 5, 96 h, 30° C.
  Optical density at 600 nm of culture broths: 0.028
[1]; [12]
  Optical density at 600 nm of culture broths: 1.891
[1]; [13]
  Optical density at 600 nm of culture broths: 0.011
[1]; [14]
  Optical density at 600 nm of culture broths: 0.100
[1]; 50 nM peptide, 30° C.
  Last sequential transfer through which growth was extended: fifth transfer
[1]; [15]
  Optical density at 600 nm of culture broths: 1.879
[1]; [16]
  Optical density at 600 nm of culture broths: 2.089
[1]; [17]
  Optical density at 600 nm of culture broths: 2.313
[1]; [18]
  Optical density at 600 nm of culture broths: 2.187
[1]; 50 nM peptide, transfer 5, 96 h, 30° C.
  Optical density at 600 nm of culture broths: 2.173
[1]; 30° C., sequential batch cultures
  Number of sequential transfers compared with a culture without added peptide: at least four more times
[1]; [19]
  Optical density at 600 nm of culture broths: 1.715
[1]; [20]
  Optical density at 600 nm of culture broths: 1.858
[1]; [21]
  Optical density at 600 nm of culture broths: 1.485
[1]; [22]
  Optical density at 600 nm of culture broths: 2.121
[2]; [3]
  Final pH of culture broths: 6.0
[2]; [4]
  Final pH of culture broths: 4.4
[2]; [5]
  Final pH of culture broths: 4.4
[2]; [6]
  Final pH of culture broths: 6.0
[2]; [7]
  Final pH of culture broths: 6.0
[2]; [8]
  Final pH of culture broths: 4.4
[2]; [9]
  Final pH of culture broths: 4.4
[2]; [10]
  Final pH of culture broths: 4.5
[2]; [11]
  Final pH of culture broths: 4.5
[2]; 10 nM peptide, transfer 5, 96 h, 30° C., listed as SEQ ID NO: 143
  Final pH of culture broths: 6.0
[2]; 10 nM peptide, transfer 5, 96 h, 30° C., listed as SEQ ID NO:143
  Final pH of culture broths: 5.9
[2]; [12]
  Final pH of culture broths: 4.4
[2]; [13]
  Final pH of culture broths: 6.0
[2]; [14]
  Final pH of culture broths: 5.5
[2]; [15]
  Final pH of culture broths: 4.4
[2]; [16]
  Final pH of culture broths: 4.6
[2]; [17]
  Final pH of culture broths: 4.5
[2]; [18]
  Final pH of culture broths: 4.4
[2]; 50 nM peptide, transfer 5, 96 h, 30° C., listed as SEQ ID NO: 143
  Final pH of culture broths: 4.3
[2]; 50 nM peptide, transfer 5, 96 h, 30° C., listed as SEQ ID NO:143
  Final pH of culture broths: remained low
[2]; [19]
  Final pH of culture broths: 4.5
[2]; [20]
  Final pH of culture broths: 3.8
[2]; [21]
  Final pH of culture broths: 4.6
[2]; [22]
  Final pH of culture broths: 4.1
C. acetobutylicum
  Expected time in continuous culture with peptide: about 700 hours
